From US9682141B2, “Combination of kinase inhibitors and uses thereof” (INTELLIKINE LLC, priority 2011, dated 2017)

Columns and labels:
marginal zone B cells = assay: Marginal zone B cells in mouse spleen (FACS); type: in vivo; conditions: 70 mg/kg Pan-PI3K inhibitor, 60 mg/kg Compound A; spleens harvested 2 hrs after last dose
Excerpt: Spleens were harvested 2 hrs after the last dose, processed and stained with appropriate antibodies (marginal zone B cell: B220+;CD23−;CD21hi) and analyzed for staining on GUAVA EasyCyte FACS machine using Guava Cytosoft 5.2 software.

MDA-MB-361 tumors = assay: Xenogenic mouse model of breast cancer (MDA-MB-361); type: in vivo; conditions: 70 mg/kg Pan-PI3K inhibitor, 60 mg/kg Compound A
[1] = test system: anti-TNP antibody production; assay: TNP-Ficoll T-cell independent B-cell activation assay; type: in vivo, mouse; conditions: mice immunized with TNP-Ficoll; 70 mg/kg GDC0941; 30, 60, 120 mg/kg Compound A; 7 days
Experimental: To test the effects of the compounds of the present invention in suppressing T cell independent antibody production, the TNP-Ficoll B-cell activation assay is used as described herein. Compounds of the present invention are dissolved in an appropriate vehicle (e.g. 5% 1-methyl-2-pyrrolidinone, 85% polyethylene glycol 400, 10% Solutor). Compounds are administered orally approximately 1 hr before TNP-Ficoll treatment to 4-10 week old mice. To study the effects of the compounds on B-cell activation, one set of mice are grouped according to the following table:
Four animals in group 1, and eight animals in groups 2 to 7 are euthanized in CO2 2 hours after the last compound administration on day 7. […]
Serum samples are analyzed for anti-TNP antibody titers by ELISA as described herein. […] HRP substrate (200 μl ABTS solution+30% H2O2+10 ml citrate buffer) is added to each well at 100 μl/well, incubated 2-20 minutes in the dark and the amount of anti-TNP IgG3 is determined spectrophotometrically at 405 nm. Similarly, anti-TNP IgM and total anti-TNP Ab are determined using anti-mouse IgM-HRP and anti-mouse Ig-HRP respectively.
Antibody production was measured using ELISA and plotted as as a percentage of control group that were treated with vehicle.

[2] = control or reference compound, 5 μM; cited from earlier work
PI3K γ = PI3K γ (Homo sapiens (Human), UniProt P48736); assay: PI 3-Kinase (human) HTRF assay, p110γ; type: biochemical; conditions: read-out: PI3K γ IC50
PI3K α = PI3K α (Homo sapiens (Human), UniProt P42336); assay: PI 3-Kinase (human) HTRF assay, p110α/p85α; type: biochemical
PI3K β = PI3K β (Homo sapiens (Human), UniProt P42338); assay: PI 3-Kinase (human) HTRF assay, p110β/p85α; type: biochemical
Experimental: (§1) An exemplary system is PI 3-Kinase (human) HTRF™ Assay from Upstate. […] Briefly, the assay is a time resolved FRET assay that indirectly measures PIP3 product formed by the activity of a PI3-K. The kinase reaction is performed in a microtitre plate (e.g., a 384 well microtitre plate). The total reaction volume is approximately 20 ul per well. In the first step, each well receives 2 ul of test compound in 20% dimethylsulphoxide resulting in a 2% DMSO final concentration. Next, approximately 14.5 ul of a kinase/PIP2 mixture (diluted in 1× reaction buffer) is added per well for a final concentration of 0.25-0.3 ug/ml kinase and 10 μM PIP2. The plate is sealed and incubated for 15 minutes at room temperature. To start the reaction, 3.5 ul of ATP (diluted in 1× reaction buffer) is added per well for a final concentration of 10 μM ATP. The plate is sealed and incubated for 1 hour at room temperature. The reaction is stopped by adding 5 ul of Stop Solution per well and then 5 ul of Detection Mix is added per well. The plate is sealed, incubated for 1 hour at room temperature, and then read on an appropriate plate reader. Data is analyzed and IC50s are generated using GraphPad Prism 5. For PI3K α, β, δ, and γ, the nM concentration of inhibitor to reach IC50 is provided.

T47D cells = assay: T47D proliferation; type: cell-based; conditions: Homo sapiens
PI3K δ = PI3K δ (Homo sapiens (Human), UniProt O00329); assay: PI 3-Kinase (human) HTRF assay, p110δ/p85α; type: biochemical
Experimental: as §1

[3] = test system: PI3K/Akt/mTor signaling in blood cells; assay: Kinase signaling in blood (phosflow); type: cell-based; conditions: anti-CD3 stimulated splenocytes or PBMC
Experimental: PI3K/Akt/mTor signaling is measured in blood cells using the phosflow method (Methods Enzymol. 2007; 434:131-54). The advantage of this method is that it is by nature a single cell assay so that cellular heterogeneity can be detected rather than population averages. This allows concurrent dinstinction of signaling states in different populations defined by other markers. Phosflow is also highly quantitative. To test the effects of one or more compounds disclosed herein, unfractionated splenocytes, or peripheral blood mononuclear cells are stimulated with anti-CD3 to initiate T-cell receptor signaling. The cells are then fixed and stained for surface markers and intracellular phosphoproteins.
Similarly, aliquots of whole blood are incubated for 15 minutes with vehicle (e.g., 0.1% DMSO) or kinase inhibitors at various concentrations, before addition of stimuli to crosslink the T cell receptor (TCR) (anti-CD3 with secondary antibody) or the B cell receptor (BCR) using anti-kappa light chain antibody (Fab′2 fragments). After approximately 5 and 15 minutes, samples are fixed (e.g., with cold 4% paraformaldehyde) and used for phosflow. […] The level of phosphrylation of kinase substrates such as Akt and S6 are then measured by incubating the fixed cells with labeled antibodies specific to the phosphorylated isoforms of these proteins. The population of cells is then analyzed by flow cytometry.

[4] = PBS pH 7.4, 37° C., 24 hours, 5 μM reference compound; cited from earlier work
mTORC = mTORC (Homo sapiens (Human), UniProt P42345); assay: mTOR inhibition assay (radiometric or LanthaScreen TR-FRET); type: biochemical
Chain of mTORC (P42345 1360-2549): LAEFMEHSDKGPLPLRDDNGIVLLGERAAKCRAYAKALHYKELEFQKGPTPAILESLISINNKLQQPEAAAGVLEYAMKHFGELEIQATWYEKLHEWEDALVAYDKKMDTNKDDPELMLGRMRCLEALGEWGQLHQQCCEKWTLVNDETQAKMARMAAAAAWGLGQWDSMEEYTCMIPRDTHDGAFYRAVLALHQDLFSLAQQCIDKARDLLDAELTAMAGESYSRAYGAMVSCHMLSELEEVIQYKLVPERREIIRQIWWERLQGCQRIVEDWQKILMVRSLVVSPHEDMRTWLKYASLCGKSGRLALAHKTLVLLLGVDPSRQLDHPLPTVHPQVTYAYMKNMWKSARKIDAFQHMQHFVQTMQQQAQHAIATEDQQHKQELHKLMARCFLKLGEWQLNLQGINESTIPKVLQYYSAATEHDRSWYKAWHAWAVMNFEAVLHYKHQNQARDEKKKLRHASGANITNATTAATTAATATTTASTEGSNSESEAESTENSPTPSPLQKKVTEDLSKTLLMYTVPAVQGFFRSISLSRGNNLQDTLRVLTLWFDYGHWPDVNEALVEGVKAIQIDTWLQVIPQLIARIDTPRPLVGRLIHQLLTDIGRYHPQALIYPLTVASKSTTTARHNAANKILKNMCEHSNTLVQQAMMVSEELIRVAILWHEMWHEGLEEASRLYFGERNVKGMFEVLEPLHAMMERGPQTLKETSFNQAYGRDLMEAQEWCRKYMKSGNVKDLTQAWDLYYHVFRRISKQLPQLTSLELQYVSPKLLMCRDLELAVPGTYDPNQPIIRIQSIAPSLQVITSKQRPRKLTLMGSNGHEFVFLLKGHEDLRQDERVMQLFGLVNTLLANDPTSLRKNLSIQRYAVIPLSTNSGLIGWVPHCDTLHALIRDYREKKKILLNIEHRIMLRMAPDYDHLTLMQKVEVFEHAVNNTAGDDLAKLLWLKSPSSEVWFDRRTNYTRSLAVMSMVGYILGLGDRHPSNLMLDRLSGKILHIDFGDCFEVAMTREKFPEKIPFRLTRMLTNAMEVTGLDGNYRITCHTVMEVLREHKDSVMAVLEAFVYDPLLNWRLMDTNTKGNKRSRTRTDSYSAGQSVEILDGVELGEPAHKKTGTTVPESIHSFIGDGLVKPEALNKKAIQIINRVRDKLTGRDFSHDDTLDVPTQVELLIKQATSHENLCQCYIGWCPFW
Experimental: The compounds described herein can be tested against recombinant mTOR (Invitrogen) in an assay containing 50 mM HEPES, pH 7.5, 1 mM EGTA, 10 mM MgCl2, 2.5 mM, 0.01% Tween, 10 μM ATP (2.5 μCi of μ-32P-ATP), and 3 μg/mL BSA. Rat recombinant PHAS-1/4EBP1 (Calbiochem; 2 mg/mL) is used as a substrate. Reactions are terminated by spotting onto nitrocellulose, which is washed with 1M NaCl/1% phosphoric acid (approximately 6 times, 5-10 minutes each). Sheets are dried and the transferred radioactivity quantitated by phosphorimaging.
For instance, one can use Invitrogen's LanthaScreen™ Kinase assay to test the inhibitors of mTOR disclosed herein. This assay is a time resolved FRET platform that measures the phosphorylation of GFP labeled 4EBP1 by mTOR kinase. The kinase reaction is performed in a white 384 well microtitre plate. The total reaction volume is 20 ul per well and the reaction buffer composition is 50 mM HEPES pH7.5, 0.01% Polysorbate 20, 1 mM EGTA, 10 mM MnCl2, and 2 mM DTT. In the first step, each well receives 2 ul of test compound in 20% dimethylsulphoxide resulting in a 2% DMSO final concentration. Next, 8 ul of mTOR diluted in reaction buffer is added per well for a 60 ng/ml final concentration. To start the reaction, 10 ul of an ATP/GFP-4EBP1 mixture (diluted in reaction buffer) is added per well for a final concentration of 10 μM ATP and 0.5 μM GFP-4EBP1. The plate is sealed and incubated for 1 hour at room temperature. […] The plate is sealed, incubated for 1 hour at room temperature, and then read on a plate reader set up for LanthaScreen™ TR-FRET. Data is analyzed and IC50s are generated using GraphPad Prism 5.

Chain of PI3K γ (P48736 whole entry): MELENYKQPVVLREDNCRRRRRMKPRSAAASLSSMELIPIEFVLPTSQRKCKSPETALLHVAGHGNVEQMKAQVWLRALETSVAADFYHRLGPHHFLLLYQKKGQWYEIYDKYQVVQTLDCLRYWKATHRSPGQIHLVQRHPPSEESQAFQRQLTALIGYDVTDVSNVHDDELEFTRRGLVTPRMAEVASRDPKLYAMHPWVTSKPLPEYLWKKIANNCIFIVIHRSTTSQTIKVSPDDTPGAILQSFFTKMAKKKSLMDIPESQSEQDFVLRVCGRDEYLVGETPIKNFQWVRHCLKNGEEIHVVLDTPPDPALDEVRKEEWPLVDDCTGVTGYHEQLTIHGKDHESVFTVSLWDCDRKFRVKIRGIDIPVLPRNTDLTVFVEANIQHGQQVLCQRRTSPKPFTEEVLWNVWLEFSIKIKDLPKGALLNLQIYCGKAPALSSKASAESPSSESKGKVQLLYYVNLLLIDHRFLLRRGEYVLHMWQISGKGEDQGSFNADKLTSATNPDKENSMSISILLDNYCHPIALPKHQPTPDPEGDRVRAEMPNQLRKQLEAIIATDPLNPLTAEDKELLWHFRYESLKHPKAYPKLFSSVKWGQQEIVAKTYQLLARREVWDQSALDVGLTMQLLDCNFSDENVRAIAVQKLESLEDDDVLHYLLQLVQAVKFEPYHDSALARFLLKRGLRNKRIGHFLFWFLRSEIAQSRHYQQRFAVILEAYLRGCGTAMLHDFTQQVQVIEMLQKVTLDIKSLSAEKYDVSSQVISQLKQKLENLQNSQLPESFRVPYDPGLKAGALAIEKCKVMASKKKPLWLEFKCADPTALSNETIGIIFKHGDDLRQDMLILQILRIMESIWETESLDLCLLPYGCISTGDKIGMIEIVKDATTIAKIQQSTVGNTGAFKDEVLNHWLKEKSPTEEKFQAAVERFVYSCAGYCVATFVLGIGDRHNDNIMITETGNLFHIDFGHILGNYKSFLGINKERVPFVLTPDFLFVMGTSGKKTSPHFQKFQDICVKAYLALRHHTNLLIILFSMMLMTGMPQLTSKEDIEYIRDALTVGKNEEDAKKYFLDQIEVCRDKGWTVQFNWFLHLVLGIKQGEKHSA
Chain of PI3K α (P42336 whole entry): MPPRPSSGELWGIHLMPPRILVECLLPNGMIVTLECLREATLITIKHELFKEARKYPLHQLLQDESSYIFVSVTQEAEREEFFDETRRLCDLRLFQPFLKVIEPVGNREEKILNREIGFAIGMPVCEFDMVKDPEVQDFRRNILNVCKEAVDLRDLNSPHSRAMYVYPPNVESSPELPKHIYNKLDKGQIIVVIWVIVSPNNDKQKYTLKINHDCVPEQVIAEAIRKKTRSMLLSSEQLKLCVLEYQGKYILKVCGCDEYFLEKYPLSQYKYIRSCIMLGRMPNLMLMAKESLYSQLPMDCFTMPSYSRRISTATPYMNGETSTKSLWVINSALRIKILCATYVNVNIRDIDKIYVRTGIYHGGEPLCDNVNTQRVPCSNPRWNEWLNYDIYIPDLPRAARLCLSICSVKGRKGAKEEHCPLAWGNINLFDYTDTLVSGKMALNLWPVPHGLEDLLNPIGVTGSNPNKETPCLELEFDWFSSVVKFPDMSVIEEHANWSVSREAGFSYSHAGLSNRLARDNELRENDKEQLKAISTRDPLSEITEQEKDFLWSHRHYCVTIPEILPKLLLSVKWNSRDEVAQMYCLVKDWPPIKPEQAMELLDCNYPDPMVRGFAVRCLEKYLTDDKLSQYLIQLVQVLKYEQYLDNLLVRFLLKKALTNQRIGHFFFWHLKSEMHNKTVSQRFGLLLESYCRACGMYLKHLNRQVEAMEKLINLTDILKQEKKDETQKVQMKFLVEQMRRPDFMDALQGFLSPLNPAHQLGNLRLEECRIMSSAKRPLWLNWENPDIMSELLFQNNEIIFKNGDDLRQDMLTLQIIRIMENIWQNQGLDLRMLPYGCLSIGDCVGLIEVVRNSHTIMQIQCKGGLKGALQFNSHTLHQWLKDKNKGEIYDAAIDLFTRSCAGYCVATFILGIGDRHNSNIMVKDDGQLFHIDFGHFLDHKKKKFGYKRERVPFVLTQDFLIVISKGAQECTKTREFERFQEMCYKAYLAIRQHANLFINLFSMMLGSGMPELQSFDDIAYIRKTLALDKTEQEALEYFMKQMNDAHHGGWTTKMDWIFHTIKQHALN
Chain of PI3K α (P27986 whole entry partner): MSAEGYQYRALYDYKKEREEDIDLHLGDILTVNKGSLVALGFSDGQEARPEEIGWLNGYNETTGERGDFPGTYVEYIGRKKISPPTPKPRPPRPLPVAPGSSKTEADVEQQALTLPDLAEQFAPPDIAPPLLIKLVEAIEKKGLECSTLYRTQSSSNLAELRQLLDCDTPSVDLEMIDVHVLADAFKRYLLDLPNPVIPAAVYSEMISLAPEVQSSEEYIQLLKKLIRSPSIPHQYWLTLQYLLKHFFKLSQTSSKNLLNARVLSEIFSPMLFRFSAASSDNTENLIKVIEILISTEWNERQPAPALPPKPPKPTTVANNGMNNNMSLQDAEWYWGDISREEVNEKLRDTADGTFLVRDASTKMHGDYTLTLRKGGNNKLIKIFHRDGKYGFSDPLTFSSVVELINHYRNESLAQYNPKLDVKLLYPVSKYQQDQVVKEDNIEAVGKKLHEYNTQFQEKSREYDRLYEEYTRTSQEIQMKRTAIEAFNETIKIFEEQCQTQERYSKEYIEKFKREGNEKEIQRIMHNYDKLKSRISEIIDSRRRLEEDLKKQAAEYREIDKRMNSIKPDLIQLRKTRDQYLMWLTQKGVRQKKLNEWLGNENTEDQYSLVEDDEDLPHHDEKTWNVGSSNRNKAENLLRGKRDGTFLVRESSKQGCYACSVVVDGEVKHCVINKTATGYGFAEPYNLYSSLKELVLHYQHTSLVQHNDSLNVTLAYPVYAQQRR

Compound	IC50 (PI3K γ) [nM]	IC50 (PI3K α) [nM]	IC50 (PI3K β) [nM]	IC50 (PI3K δ) [nM]	IC50 (mTORC) [nM]	other results
CS(=O)(=O)N1CCN(Cc2cc3nc(-c4cccc5[nH]ncc45)nc(N4CCOCC4)c3s2)CC1 [Pan-PI3K inhibitor, GDC0941]	–	–	–	–	–	presence of MZB cells in mouse spleen (marginal zone B cells): reduced presence of MZB cells; reduction in tumor weight (MDA-MB-361 tumors): reduction in tumor weight; B cell function in vivo (antibody production, % of vehicle control) [1]: blocks B cell function in vivo
CC(C)[N+](C)(CCOC(=O)C1c2ccccc2Oc2ccccc21)C(C)C [propantheline]	–	–	–	–	–	plasma stability [2]: intermediate plasma stability
Nc1nc2cc(-c3ccc4ncc(C(=O)NC5CC5)n4c3)ccc2o1	< 100	< 100	< 10000	< 1000	–	IC50 (T47D cells): < 10000 nM
CO[C@H]1C[C@@H]2CC[C@@H](C)[C@@](O)(O2)C(=O)C(=O)N2CCCC[C@H]2C(=O)O[C@H]([C@H](C)C[C@@H]2CC[C@@H](O)[C@H](OC)C2)CC(=O)[C@H](C)/C=C(\C)[C@@H](O)[C@@H](OC)C(=O)[C@H](C)C[C@H](C)/C=C/C=C/C=C/1C [rapamycin]	–	–	–	–	–	Akt phosphorylation [3]: enhances Akt phosphorylation; S6 phosphorylation [3]: inhibits S6 phosphorylation
O=C(O)CCCc1ccc(N(CCCl)CCCl)cc1 [chlorambucil, 4-[bis(2-chloroethyl)amino]benzenebutanoic acid]	–	–	–	–	–	chemical stability [4]: largely hydrolyzed over the course of 24 hours
Nc1nc2cc(-c3ccc4ncc(N5CC(N6CCOCC6)C5)nc4n3)ccc2o1	< 10000	< 100	> 10000	< 10000	< 10000	–
CC(=O)N1CCC(Nc2ncnc3ccc(-c4ccc5oc(N)nc5c4)cc23)CC1	< 100	< 100	< 10000	< 1000	< 1000	–
CCCOc1cc(N)ccc1C(=O)OCCN(CC)CC [propoxycaine]	–	–	–	–	–	plasma stability [2]: low plasma stability
Nc1nc2cc(-c3ccc4ncc(N5CCOCC5)nc4c3)ccc2o1	< 100	< 100	< 1000	> 10000	< 10000	–
Nc1nc2cccc(-c3ccc4nccc(-c5ccncc5)c4c3)c2o1 [Compound 15]	< 1000	< 100	< 100	< 1000	< 100	–
Cc1nccn1C1CN(c2cnc3ccc(-c4ccc5oc(N)nc5c4)nc3c2)C1	< 100	< 100	< 10000	< 1000	> 10000	–
